Series [1] is described as follows: UV absorption of the compounds of Table 2 (absorption maximum and specific extinction). In kind it is physicochemical. Set-up: λmax: unit not given beside the values. Conditions: for λmax: UV absorption maximum; for E^11: specific extinction at λmax.
The conditions of series [2]: used alone or in combination with UV-B filters; cited from earlier work.

For the molecule `CCCCC(CC)COC(=O)c1ccc(NC=C(C#N)C#N)cc1` (stereo not drawn) [Compound 41], in series [1] (Table 2), the λmax worked out at 330 and the “E^11” value turned out to be 1191.
Consider `CCCCc1ccc(NC=C(C#N)C(=O)C(C)(C)C)cc1` [Compound 5], for which, in series [1] (Table 2), the λmax is 342 and the “E^11” value is on record as 884.
As to `CCCCC(CC)COC(=O)c1ccc(NC=C(C#N)C(=O)c2ccccc2)cc1` (stereo not drawn) [Compound 43], in series [1] (Table 2), the λmax is recorded as 362 and the “E^11” value is 869.
On to `CCCCC(CC)COC(=O)c1ccccc1NC=C(C(C)=O)C(=O)CC` (stereo not drawn) [Compound 28], for which, in series [1] (Table 2), the λmax worked out at 346 and the “E^11” value turned out to be 757.
Turning to `CCCCC(CC)COC(=O)c1ccccc1NC=C(C(C)=O)C(=O)OC(C)(C)C` (stereo not drawn) [Compound 31], in series [1] (Table 2), the λmax worked out at 344 and the “E^11” value came out at 717.
As for `COC(=O)/C(=C\Nc1ccccc1C(=O)OC)C(C)=O` [Compound 30], in series [1] (Table 2), the λmax was determined as 344 and the “E^11” value stood at 1008.
As for `CCCCC(CC)COC(=O)c1ccc(NC=C(C#N)C(=O)C(C)(C)C)cc1` (stereo not drawn) [Compound 1], in series [1] (Table 2), the λmax was 346 and the “E^11” value stood at 860.
Take `CCCCOC(=O)c1ccccc1NC=C(C(C)=O)C(C)=O` [Compound 25]: in series [1] (Table 2), the λmax was found to be 344 and the “E^11” value worked out at 938.
For the molecule `CC(C)c1ccc(NC=C(C#N)C(=O)C(C)(C)C)cc1` [Compound 7], in series [1] (Table 2), the λmax was 342 and the “E^11” value was 903.
In the same order, the values of `CCCCC(CC)COC(=O)c1ccccc1NC=C(C(=O)OCC)C(=O)OCC` (stereo not drawn) [Compound 38] are 335 and 630.
In the same order, the values of `COc1ccc(NC=C(C#N)C(=O)C(C)(C)C)cc1` [Compound 3] are 348 and 841.
Consider `CCCCC(CC)COC(=O)C(C#N)=CNc1cc(OC)ccc1OC` (stereo not drawn) [Compound 33], for which, in series [1] (Table 2), the λmax came out at 350 and the “E^11” value is reported as 612.
`CC(C)COC(=O)c1ccccc1NC=C(C#N)C(=O)C(C)(C)C` [Compound 20]: in series [1] (Table 2), the λmax was 348 and the “E^11” value was determined as 864.
For the molecule `CC(C)(C)C(=O)C(C#N)=CNc1ccccc1C(=O)O` [Compound 15], in series [1] (Table 2), the λmax turned out to be 346 and the “E^11” value is listed as 965.
Take `CCCc1ccc(NC=C(C#N)C(=O)C(C)(C)C)cc1` [Compound 8]: in series [1] (Table 2), the λmax was determined as 342 and the “E^11” value turned out to be 918.
`CC(C)(C)C(=O)C(C#N)=CNc1ccccc1C#N` [Compound 10]: in series [1] (Table 2), the λmax is 338 and the “E^11” value is given as 995.
For `COc1ccc(OC)c(NC=C(C#N)C(=O)C(C)(C)C)c1` [Compound 14], in series [1] (Table 2), the λmax amounted to 362 and the “E^11” value is 491.
Regarding `CCCCC(CC)COC(=O)C(C#N)=CNc1ccccc1C(=O)OC` (stereo not drawn) [Compound 36], in series [1] (Table 2), the λmax amounted to 336 and the “E^11” value was found to be 752.
In turn, `CC(C)(C)C(=O)C(C#N)=CNc1ccccc1C(=O)O.OCCN(CCO)CCO` [Compound 13] registered a λmax in series [1] (Table 2) of 346. In addition, the “E^11” value in series [1] (Table 2, (water)) is given as 667 (water).
As for `COC(=O)c1ccccc1NC=C(C#N)C(=O)C(C)(C)C` [Compound 19], in series [1] (Table 2), the λmax came to 348 and the “E^11” value is reported as 995.
On to `COc1ccc(C(=O)CC(=O)c2ccc(C(C)(C)C)cc2)cc1` [PARSOL 1789, 4-(1,1-dimethylethyl)-4-methoxy-dibenzoylmethane], for which, in series [2], the photochemical stability entry is “not sufficiently photochemically stable”.
With `CCCCOC(=O)c1ccccc1NC=C(C#N)C(=O)C(C)(C)C` [Compound 21], in series [1] (Table 2), the λmax stood at 346 and the “E^11” value was determined as 825.
Regarding `CCCCC(CC)COC(=O)c1ccccc1NC=C(C#N)C(=O)C(C)(C)C` (stereo not drawn) [Compound 9], in series [1] (Table 2), the λmax is given as 348 and the “E^11” value worked out at 717.
As for `Cc1cccc(NC=C(C#N)C(=O)C(C)(C)C)c1` [Compound 2], in series [1] (Table 2), the λmax worked out at 338 and the “E^11” value is 978.
For `CCCCC(CC)COC(=O)C(C#N)=CNc1ccc(OC)cc1OC` (stereo not drawn) [Compound 32], in series [1] (Table 2), the λmax is recorded as 346 and the “E^11” value is reported as 646.
In series [1] (Table 2), `CC(C)(C)C(=O)C(C#N)=CNc1ccc(S(=O)(=O)[O-])cc1.[Na+]` [Compound 17] had a λmax of 340. The “E^11” value in series [1] (Table 2, (water)) is on record as 1010 (water).
Regarding `CCOC(=O)C(=CNc1ccccc1C(=O)OC)C(=O)OCC` [Compound 37], in series [1] (Table 2), the λmax amounted to 336 and the “E^11” value stood at 890.
Consider `COc1cccc(NC=C(C(C)=O)C(C)=O)c1` [Compound 26], for which, in series [1] (Table 2), the λmax came to 336 and the “E^11” value worked out at 1035.
In the same order, the values of `CCCCC(CC)COC(=O)c1ccc(NC=C2C(=O)c3ccccc3C2=O)cc1` (stereo not drawn) [Compound 42] are 374 and 1175.
As to `CCCCC(CC)COC(=O)c1ccc(NC=C(C(C)=O)C(=O)OC)cc1` (stereo not drawn) [Compound 29], in series [1] (Table 2), the λmax was 346 and the “E^11” value was 941.
In the same order, the values of `CCCCC(CC)COC(=O)C(C#N)=CNc1ccc(C(=O)OCC)cc1` (stereo not drawn) [Compound 35] are 332 and 1105.
Turning to `CC(C)(C)C(=O)C(C#N)=CNc1ccc(C(C)(C)C)cc1` [Compound 4], in series [1] (Table 2), the λmax is 342 and the “E^11” value worked out at 888.
Regarding `CCCCC(CC)CNC(=O)c1ccc(NC=C(C#N)C(=O)C(C)(C)C)cc1` (stereo not drawn) [Compound 6], in series [1] (Table 2), the λmax was found to be 346 and the “E^11” value is 773.
In the same order, the values of `CCCCC(CC)COC(=O)c1ccc(NC=C(C(C)=O)C(C)=O)cc1` (stereo not drawn) [Compound 27] are 346 and 1049.
`CCCCC(CC)COC(=O)c1ccc(NC=C(C(=O)OCC)C(=O)OCC)cc1` (stereo not drawn) [Compound 39]: in series [1] (Table 2), the λmax stood at 320 and the “E^11” value was determined as 700.
The like results for `CCCCC(CC)COC(=O)c1ccc(NC=C2C(=O)OC(C)(C)OC2=O)cc1` (stereo not drawn) [Compound 44] were, in that order, 336 and 896.
With `CC(C)Oc1cccc(NC=C(C#N)C(=O)C(C)(C)C)c1` [Compound 12], in series [1] (Table 2), the λmax stood at 340 and the “E^11” value was 829.
With `CCCCC(CC)COC(=O)C(C#N)=CNc1cc(OC)cc(OC)c1` (stereo not drawn) [Compound 34], in series [1] (Table 2), the λmax came to 322 and the “E^11” value was determined as 761.
`CCCCC(CC)COC(=O)c1ccccc1NC=C1CCC(C)(C)CC1=O` (stereo not drawn) [Compound 40]: in series [1] (Table 2), the λmax worked out at 358 and the “E^11” value turned out to be 743.
For the molecule `CCOc1ccccc1NC=C(C#N)C(=O)C(C)(C)C` [Compound 18], in series [1] (Table 2), the λmax is 352 and the “E^11” value amounted to 876.
`CC(C)(C)C(=O)C(C#N)=CNc1ccc(S(=O)(=O)O)cc1.OCCN(CCO)CCO` [Compound 16]: the λmax in series [1] (Table 2) amounted to 340. Moreover, the “E^11” value in series [1] (Table 2, (water)) is 666 (water).
